Molecular target: T1, LKB1 (Homo sapiens, UniProt Q15831+Q7RTN6)
T1 sequence (Q15831 1-433): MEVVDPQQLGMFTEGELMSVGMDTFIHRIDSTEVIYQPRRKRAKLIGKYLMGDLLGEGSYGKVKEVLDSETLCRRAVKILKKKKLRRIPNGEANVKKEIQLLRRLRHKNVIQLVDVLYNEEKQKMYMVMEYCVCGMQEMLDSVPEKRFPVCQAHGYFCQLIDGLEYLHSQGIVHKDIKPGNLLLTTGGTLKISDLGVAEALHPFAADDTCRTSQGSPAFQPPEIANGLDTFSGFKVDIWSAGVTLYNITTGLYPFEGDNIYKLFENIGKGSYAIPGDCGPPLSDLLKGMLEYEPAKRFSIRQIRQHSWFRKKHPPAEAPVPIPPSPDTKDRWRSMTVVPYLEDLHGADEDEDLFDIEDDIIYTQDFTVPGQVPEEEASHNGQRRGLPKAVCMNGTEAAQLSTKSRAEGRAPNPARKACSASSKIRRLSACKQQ
T1 sequence (Q7RTN6 1-431): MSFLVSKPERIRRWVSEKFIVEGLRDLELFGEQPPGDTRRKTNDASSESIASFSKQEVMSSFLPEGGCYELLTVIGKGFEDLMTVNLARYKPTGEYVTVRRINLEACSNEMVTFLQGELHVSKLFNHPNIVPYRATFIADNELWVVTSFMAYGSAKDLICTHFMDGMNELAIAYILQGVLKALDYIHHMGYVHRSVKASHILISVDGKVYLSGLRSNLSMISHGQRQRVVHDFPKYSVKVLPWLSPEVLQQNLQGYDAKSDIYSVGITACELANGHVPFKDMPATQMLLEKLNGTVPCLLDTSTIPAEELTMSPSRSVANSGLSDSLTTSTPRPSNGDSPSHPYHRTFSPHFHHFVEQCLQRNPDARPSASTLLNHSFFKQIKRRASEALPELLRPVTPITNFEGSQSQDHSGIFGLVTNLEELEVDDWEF
T1 sequence (Q9Y376 1-341 partner): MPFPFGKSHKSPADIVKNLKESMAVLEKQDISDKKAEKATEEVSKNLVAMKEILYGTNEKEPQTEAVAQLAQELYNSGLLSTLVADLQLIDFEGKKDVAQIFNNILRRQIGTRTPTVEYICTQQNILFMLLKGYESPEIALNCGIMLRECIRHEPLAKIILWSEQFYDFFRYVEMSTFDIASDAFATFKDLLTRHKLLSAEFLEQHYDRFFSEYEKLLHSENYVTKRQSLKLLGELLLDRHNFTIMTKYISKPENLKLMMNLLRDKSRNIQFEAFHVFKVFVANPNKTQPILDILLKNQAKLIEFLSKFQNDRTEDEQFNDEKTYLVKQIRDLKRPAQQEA
Assay: in vitro LKB1 functional activity
Assay type: biochemical
Conditions: APA analogs

Compound	LKB1 % Act. Increase
Cc1ccc(-c2cnc(N)c(C(=O)Nc3ccc(S(=O)(=O)CP(=O)(OC(C)C)OC(C)C)cc3)n2)cc1 [SU20668-0484, diisopropyl (4-(3-amino-6-p-tolylpyrazine-2-carboxamido)phenylsulfonyl)methylphosphonate]	D (D=<1000%)
COC(=O)c1ccc(NC(=O)c2nc(-c3ccc(C)cc3)cnc2N)cc1F [SU20668-0307, methyl 4-(3-amino-6-p-tolylpyrazine-2-carboxamido)-2-fluorobenzoate]	D (D=<1000%)
CC(=O)NS(=O)(=O)c1ccc(NC(=O)c2nc(-c3cnc(C)nc3)cnc2N)cc1 [SU20668-0369, N-(4-(N-acetylsulfamoyl)phenyl)-3-amino-6-(2-methylpyrimidin-5-yl)pyrazine-2-carboxamide]	C (C=199-1000%)
CCOP(=O)(OCC)c1ccc(NC(=O)c2nc(-c3ccc(C)cc3)cnc2N)cc1 [SU20668-0211, diethyl 4-(3-amino-6-p-tolylpyrazine-2-carboxamido)phenylphosphonate]	D (D=<1000%)
COP(=O)(CS(=O)(=O)c1ccc(NC(=O)c2nc(-c3ccc(S(C)(=O)=O)cc3)cnc2N)cc1)OC [SU20668-0447, dimethyl (4-(3-amino-6-(4-(methylsulfonyl)phenyl)pyrazine-2-carboxamido)phenylsulfonyl)methylphosphonate]	D (D=<1000%)
Cc1ccc(-c2cnc(N)c(C(=O)Nc3ccc(S(=O)(=O)C(F)(F)F)cc3)n2)cc1 [SU20668-0292, 3-amino-6-p-tolyl-N-(4-(trifluoromethylsulfonyl)phenyl)pyrazine-2-carboxamide]	D (D=<1000%)
COP(=O)(CS(=O)(=O)c1ccc(NC(=O)c2nc(-c3ccc(C)cc3C)cnc2N)cc1)OC [SU20668-0450, dimethyl (4-(3-amino-6-(2,4-dimethylphenyl)pyrazine-2-carboxamido)phenylsulfonyl)methylphosphonate]	D (D=<1000%)
Cc1ccc(-c2cnc(N)c(C(=O)Nc3ccc(C(=O)O)nc3)n2)cc1 [SU20668-0300, 5-(3-amino-6-p-tolylpyrazine-2-carboxamido)picolinic acid]	D (D=<1000%)
CC(=O)NS(=O)(=O)c1ccc(NC(=O)c2nc(-c3ccc(C(N)=O)cc3)cnc2N)cc1 [SU20668-0342, N-(4-(N-acetylsulfamoyl)phenyl)-3-amino-6-(4-carbamoylphenyl)pyrazine-2-carboxamide]	D (D=<1000%)
CC(=O)NS(=O)(=O)c1ccc(NC(=O)c2nc(-c3ccc(N)cc3)cnc2N)cc1 [SU20668-0344, N-(4-(N-acetylsulfamoyl)phenyl)-3-amino-6-(4-aminophenyl)pyrazine-2-carboxamide]	C (C=199-1000%)
CC(=O)Nc1ccc(-c2cnc(N)c(C(=O)Nc3ccc(S(=O)(=O)NC(C)=O)cc3)n2)cc1 [SU20668-0346, 6-(4-acetamidophenyl)-N-(4-(N-acetylsulfamoyl)phenyl)-3-aminopyrazine-2-carboxamide]	C (C=199-1000%)
Cc1ccc(-c2cnc(N)c(C(=O)Nc3ccc(S(=O)(=O)CP(C)(C)=O)cc3)n2)cc1 [SU20668-0492, 3-amino-N-[4-(dimethylphosphorylmethylsulfonyl)phenyl]-6-(p-tolyl)pyrazine-2-carboxamide]	B (B=399-2000%)
Cc1ccc(-c2cnc(N)c(C(=O)Nc3ccc(NS(C)(=O)=O)cc3)n2)cc1 [SU20668-0281]	D (D=<1000%)
CCP(=O)(CS(=O)(=O)c1ccc(NC(=O)c2nc(-c3ccc(C)cc3)cnc2N)cc1)OC (stereo not drawn) [SU20668-0514, methyl (4-(3-amino-6-p-tolylpyrazine-2-carboxamido)phenylsulfonyl)methyl(ethyl)phosphinate]	B (B=399-2000%)
Cc1ccc(-c2cnc(N)c(C(=O)Nc3ccc(C(=O)O)cc3)n2)cc1 [SU20668-0279, 4-(3-amino-6-p-tolylpyrazine-2-carboxamido)benzoic acid]	C (C=199-1000%)
CCOC(=O)CS(=O)(=O)c1ccc(NC(=O)c2nc(-c3ccc(C)cc3)cnc2N)cc1 [SU20668-0311, ethyl 2-(4-(3-amino-6-p-tolylpyrazine-2-carboxamido)phenylsulfonyl)acetate]	C (C=199-1000%)
CCS(=O)(=O)c1cccc(-c2cnc(N)c(C(=O)Nc3ccc(S(=O)(=O)NC(C)=O)cc3)n2)c1 [SU20668-0373, N-(4-(N-acetylsulfamoyl)phenyl)-3-amino-6-(3-(ethylsulfonyl)phenyl)pyrazine-2-carboxamide]	C (C=199-1000%)
Cc1ccc(-c2cnc(N)c(C(=O)Nc3ccc(S(N)(=O)=O)nc3)n2)cc1 [SU20668-0304, 3-amino-N-(6-sulfamoylpyridin-3-yl)-6-p-tolylpyrazine-2-carboxamide]	D (D=<1000%)
CC(=O)NS(=O)(=O)c1ccc(NC(=O)c2nc(-c3ccc(Cl)cc3)cnc2N)cc1 [SU20668-0391, N-(4-(N-acetylsulfamoyl)phenyl)-3-amino-6-(4-chlorophenyl)pyrazine-2-carboxamide]	D (D=<1000%)
CC(=O)NS(=O)(=O)c1ccc(NC(=O)c2nc(-c3ccc4cc[nH]c4c3)cnc2N)cc1 [SU20668-0345, N-(4-(N-acetylsulfamoyl)phenyl)-3-amino-6-(1H-indol-6-yl)pyrazine-2-carboxamide]	C (C=199-1000%)
CC(=O)NS(=O)(=O)c1ccc(NC(=O)c2nc(-c3ccc(C)c(F)c3)cnc2N)cc1 [SU20668-0390, N-(4-(N-acetylsulfamoyl)phenyl)-3-amino-6-(3-fluoro-4-methylphenyl)pyrazine-2-carboxamide]	D (D=<1000%)
CCOP(=O)(OCC)C(C)S(=O)(=O)c1ccc(NC(=O)c2nc(-c3ccc(C)cc3)cnc2N)cc1 (stereo not drawn) [SU20668-0505, diethyl 1-(4-(3-amino-6-p-tolylpyrazine-2-carboxamido)phenylsulfonyl)ethylphosphonate]	A (A=>4000%)
Cc1ccc(-c2cnc(N)c(C(=O)Nc3ccc4c(c3)CNS4(=O)=O)n2)cc1 [SU20668-0288]	D (D=<1000%)
Cc1ccc(-c2cnc(N)c(C(=O)Nc3ccc(C(=O)OC(C)(C)C)c(F)c3)n2)cc1 [SU20668-0308, tert-butyl 4-(3-amino-6-p-tolylpyrazine-2-carboxamido)-2-fluorobenzoate]	C (C=199-1000%)
CCO[P@@](C)(=O)CS(=O)(=O)c1ccc(NC(=O)c2nc(-c3ccc(C)cc3)cnc2N)cc1 [SU20668-0517, (R)-ethyl (4-(3-amino-6-p-tolylpyrazine-2-carboxamido)phenylsulfonyl)methyl(methyl)phosphinate]	B (B=399-2000%)
COP(=O)(CS(=O)(=O)c1ccc(NC(=O)c2nc(-c3ccc(C)c(O)c3)cnc2N)cc1)OC [SU20668-0496, dimethyl (4-(3-amino-6-(3-hydroxy-4-methylphenyl)pyrazine-2-carboxamido)phenylsulfonyl)methylphosphonate]	C (C=199-1000%)
Cc1ccc(-c2cnc(N)c(C(=O)Nc3ccc(P(=O)(O)O)cc3)n2)cc1 [SU20668-0196, 4-(3-amino-6-p-tolylpyrazine-2-carboxamido)phenylphosphonic acid]	C (C=199-1000%)
CCOP(=O)(CS(=O)(=O)c1ccc(NC(=O)c2nc(-c3cc(F)ccc3C#N)cnc2N)cc1)OCC [SU20668-0471, diethyl (4-(3-amino-6-(2-cyano-5-fluorophenyl)pyrazine-2-carboxamido)phenylsulfonyl)methylphosphonate]	D (D=<1000%)
CC(=O)NS(=O)(=O)c1ccc(NC(=O)c2nc(-c3ccc(C)cc3)cnc2N)cc1F [SU20668-0483]	D (D=<1000%)
COP(=O)(CS(=O)(=O)c1ccc(NC(=O)c2nc(-c3cc(F)ccc3Cl)cnc2N)cc1)OC [SU20668-0449, dimethyl (4-(3-amino-6-(2-chloro-5-fluorophenyl)pyrazine-2-carboxamido)phenylsulfonyl)methylphosphonate]	C (C=199-1000%)
